Results on 47 compounds are retold here after the SangsterLogP compilation.

The data set can be described thus: method code SF-AS, from DOI: 10.1016/0009-2797(77)90026-6.

For `CC1C(c2ccccc2)OCCN1N=O` (configuration not stated), the logP (usually the decadic logarithm of the partition coefficient of the neutral form, usually between octanol and water) amounted to 2.09.

In turn, `O=NN1CCC(Cl)C(Cl)C1` (configuration not stated) registered a lipophilicity (logP) of 1.04. As to `CCN(CC)C(=O)N(C)N=O`, the log partition coefficient (logP) is 1.11. In turn, `CN(CC(C)(C)C)N=O` displayed a logP of 1.34. The value for `O=NN1CCN(N=O)CC1` was -0.85; that for `CCN(N=O)C(=O)N(C)C` was 0.71; that for `N#CCN(CC#N)N=O` was 0.04. In turn, `O=NN1CCC(c2ccccc2)CC1` registered a logP of 2.59. The value for `CC1CN(N=O)CC(C)N1C(=O)c1ccccc1` (configuration not stated) was 1.41; that for `O=NN1CCCCCC1` was 0.92; that for `O=NN1CCCC1` was -0.19.

Compound `CC1(C)CCCC(C)(C)N1N=O` yielded a logP of 2.49.

In turn, `CC1CN(N=O)CCN1N=O` (configuration not stated) displayed a lipophilicity (logP) of -0.28. The compound `CC1CN(N=O)CC(C)O1` (configuration not stated) displayed a logP of 0.32. The value for `CC1CCC(C)N1N=O` (configuration not stated) was 0.86. The value for `CC1CCCN(N=O)C1` (configuration not stated) was 0.99. The value for `CC1CC(C)CN(N=O)C1` (configuration not stated) was 1.53. Regarding `CC1CN(N=O)CC(C)N1` (configuration not stated), the log partition coefficient (logP) amounted to 0.73. The value for `O=NN1CCC(O)CC1` was -0.89. As to `O=NN(CC(F)(F)F)CC(F)(F)F`, the logP was 2.15. The value for `O=NN1CC=CC1` was 0.26; that for `CN1CCN(N=O)CC1` was 0.2; that for `CC1CN(C(=O)c2ccccc2)CC(C)N1N=O` (configuration not stated) was 1.04. The compound `CCOCCN(CCOCC)N=O` displayed a lipophilicity (logP) of 0.79. The value for `CN(N=O)C1CCCCC1` was 1.43; that for `O=NN1CCCCCCCC1` was 2.04. With `COCCN(CCOC)N=O`, the logP is -0.38. As for `CC1CCCCN1N=O` (configuration not stated), the logP came out at 0.71.

As to `CC1CCCC(C)N1N=O` (configuration not stated), the logP amounted to 1.36. The value for `O=NN1CCCCC1` was 0.63.

Compound `CCCCCCCCCCCCN(C)N=O` registered a lipophilicity (logP) of 2.18. In the case of `CN(C)C(=O)N(C)N=O`, the logP turned out to be 0.36.

On to `O=NN1CCC(=O)CC1`, for which the logP was -0.47. The value for `CC1CN(N=O)C(C)CN1N=O` (configuration not stated) was 0.15. The value for `CC1C(C)N(N=O)C(C)C(C)N1N=O` (configuration not stated) was 0.91; that for `O=NN1CCC(Br)C(Br)C1` (configuration not stated) was 1.23; that for `O=NN1CCCCCCC1` was 1.48.

`CCN(CC)C(=O)N(CC)N=O`: the log partition coefficient (logP) is 1.54. As to `CC(C)(C)C1CCN(N=O)CC1`, the logP turned out to be 2.54. The value for `N#CCCN(CCC#N)N=O` was 0.08; that for `O=NN1CCNCC1` was 0.18.

In turn, `O=NN1CCSCC1` gave a logP of 0.4. In the case of `O=NN1CCCN(N=O)CC1`, the logP was -0.51. Regarding `O=NN1CC=CCC1`, the logP amounted to 1.18.

`O=NN1CCCC(O)C1` (configuration not stated): the logP was -0.47. `CC1CCN(N=O)CC1` yielded a logP of 1.05.

`CC1CN(N=O)CC(C)N1N=O` (configuration not stated) yielded a logP of 0.08.
